Data as given in patent US10093678B2, “Azaspiro derivatives as TRPM8 antagonists” (RaQualia Pharma Inc., priority 2014, dated 2018).

What follows are compounds tested against T1, human TRPM8 (Homo sapiens, UniProt Q7Z2W7) (assay: Menthol-induced Ca2+ influx in HEK293 cells stably expressing human TRPM8). Conditions: 30 microM menthol-induced Ca2+ influx, read-out: IC50 against TRPM8.
T1 construct: expressed in transfected cells; host or cells: HEK293
Assay type: cell-based
Summary of the method: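 IC50 values were fitted from 11-point dose-response data averaged over duplicate wells. Compound was added for 5 min to Fluo4-loaded HEK293 cells carrying stable human TRPM8, in HBSS/HEPES pH 7.4 with probenecid. Intracellular Ca2+ change after 30 microM menthol addition was then imaged on FDSS.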

T1 sequence (Q7Z2W7 whole entry): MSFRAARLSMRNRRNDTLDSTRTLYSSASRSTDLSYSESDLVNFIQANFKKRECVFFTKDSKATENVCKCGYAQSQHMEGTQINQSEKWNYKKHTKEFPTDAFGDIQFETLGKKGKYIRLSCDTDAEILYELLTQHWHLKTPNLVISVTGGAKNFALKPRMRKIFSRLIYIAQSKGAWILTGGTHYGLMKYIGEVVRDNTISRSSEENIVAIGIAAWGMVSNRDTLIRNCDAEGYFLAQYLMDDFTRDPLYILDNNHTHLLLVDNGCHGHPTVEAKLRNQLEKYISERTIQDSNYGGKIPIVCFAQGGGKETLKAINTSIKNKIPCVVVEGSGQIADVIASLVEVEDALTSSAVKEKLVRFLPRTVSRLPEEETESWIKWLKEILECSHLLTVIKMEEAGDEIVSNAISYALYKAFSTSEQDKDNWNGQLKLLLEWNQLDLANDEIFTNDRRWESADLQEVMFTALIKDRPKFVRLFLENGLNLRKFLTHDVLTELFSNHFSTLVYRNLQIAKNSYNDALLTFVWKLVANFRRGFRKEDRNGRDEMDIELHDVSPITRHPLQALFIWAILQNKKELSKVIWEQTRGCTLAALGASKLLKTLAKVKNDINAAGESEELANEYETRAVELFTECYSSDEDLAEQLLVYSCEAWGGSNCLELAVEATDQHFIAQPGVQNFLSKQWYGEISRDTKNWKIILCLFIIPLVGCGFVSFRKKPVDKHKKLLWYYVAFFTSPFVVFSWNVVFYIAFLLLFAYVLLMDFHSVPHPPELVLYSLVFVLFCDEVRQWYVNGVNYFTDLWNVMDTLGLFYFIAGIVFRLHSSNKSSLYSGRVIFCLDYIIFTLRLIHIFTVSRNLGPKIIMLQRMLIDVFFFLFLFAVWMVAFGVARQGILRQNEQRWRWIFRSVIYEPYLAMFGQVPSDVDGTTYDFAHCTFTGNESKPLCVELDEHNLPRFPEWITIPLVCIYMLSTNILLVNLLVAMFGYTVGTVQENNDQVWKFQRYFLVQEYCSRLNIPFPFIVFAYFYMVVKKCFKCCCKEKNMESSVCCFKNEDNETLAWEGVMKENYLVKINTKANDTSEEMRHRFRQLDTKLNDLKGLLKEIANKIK

SMILES | IC50 [nM]
Cc1cc(C(=O)CN2C(=O)NC3(CCCCC3)C2=O)c(C)n1-c1cccc(N2CCCC(O)C2)n1 (centres unmarked) [Example 3-29, 3-(2-(1-(6-(3-hydroxypiperidin-1-yl)pyridin-2-yl)-2,5-dimethyl-1H-pyrrol-3-yl)-2-oxoethyl)-1,3-diazaspiro[4.5]decane-2,4-dione] | < 500
O=C(CN1C(=O)NC2(CCC(F)(F)CC2)C1=O)c1ccc(-c2ncccc2F)cc1 [Example 6-27] | < 100
O=C(CN1C(=O)NC2(CCCCC2)C1=O)c1ccc(Oc2cccnn2)cc1 [Example 5-40] | < 500
Cc1cc(-n2c(C)cc(C(=O)CN3C(=O)NC4(CCC(F)(F)CC4)C3=O)c2C)no1 [Example 1-1, 3-(2-(2,5-dimethyl-1-(5-methylisoxazol-3-yl)-1H-pyrrol-3-yl)-2-oxoethyl)-8,8-difluoro-1,3-diazaspiro[4.5]decane-2,4-dione] | < 100
Cc1cc(C(=O)CN2C(=O)NC3(CCC(F)(F)CC3)C2=O)c(C)n1-c1cccc(Cl)c1 [Example 3-7] | < 100
O=C(CN1C(=O)NC2(CCC(F)(F)CC2)C1=O)c1ccc(-c2nccnc2CO)cc1 [Example 6-6] | < 10
Cc1nc2ccc(C(F)(F)F)nc2n1-c1ccc(C(=O)CN2C(=O)NC3(CCC(F)(F)CC3)C2=O)cc1 [Example 5-31] | < 100
N#Cc1nccnc1-c1ccc(C(=O)CN2C(=O)NC3(CCC(F)(F)CC3)C2=O)c(F)c1 [Example 8-8] | < 100
N#Cc1ncccc1-c1ccc(C(=O)CN2C(=O)NC3(CCC(F)(F)CC3)C2=O)cc1 [Example 6-15] | < 100
Cc1c(C(=O)CN2C(=O)NC3(CCC(F)(F)CC3)C2=O)ccn1-c1ccccc1 [Example 4-6] | < 100
O=C(CN1C(=O)NC2(CCC(F)(F)CC2)C1=O)c1ccc(-c2ncccc2CO)cc1 [Example 6-36] | < 100
COc1ccccc1-c1ccc(C(=O)CN2C(=O)NC3(CCCCC3)C2=O)cn1 [Example 9-3] | < 10
Cc1nc(C(=O)CN2CC3(CCC(F)(F)CC3)OC2=O)c(C)n1-c1cccc(F)c1 [Example 2-18] | < 500
N#Cc1cccc(-c2ccc(C(=O)CN3C(=O)NC4(CCC(F)(F)CC4)C3=O)cc2)n1 [Example 6-26] | < 100
Cc1ncccc1-c1ccc(C(=O)CN2C(=O)NC3(CCCCC3)C2=O)cc1 [Example 7-1] | < 10
Cc1ncncc1-c1ccc(C(=O)CN2C(=O)NC3(CCC(F)(F)CC3)C2=O)cc1 [Example 6-34] | < 100
O=C(CN1C(=O)NC2(CCC(F)(F)CC2)C1=O)c1ccc(-c2cnccc2CO)c(F)c1 [Example 8-2] | < 100

SMILES | IC50 [nM]
CC(=O)NCc1ncccc1-c1ccc(C(=O)CN2C(=O)NC3(CCC(F)(F)CC3)C2=O)cc1 [Example 6-57, N-((3-(4-(2-(8,8-difluoro-2,4-dioxo-1,3-diazaspiro[4.5]decan-3-yl)acetyl)phenyl)pyridin-2-yl)methyl)acetamide] | < 100
O=C(CN1C(=O)NC2(CCC(F)(F)CC2)C1=O)c1ccc(-c2ccncc2Cl)cc1 [Example 6-122] | < 100
Cc1ccccc1-c1ccc(C(=O)CN2C(=O)NC3(CCCCC3)C2=O)cn1 [Example 9-2] | < 10
NCc1nc2ccccc2n1-c1ccc(C(=O)CN2C(=O)NC3(CCC(F)(F)CC3)C2=O)cc1 [Example 5-16, 3-(2-(4-(2-(aminomethyl)-1H-benzo[d]imidazol-1-yl)phenyl)-2-oxoethyl)-8,8-difluoro-1,3-diazaspiro[4.5]decane-2,4-dione] | < 500
CS(=O)(=O)c1ccccc1-c1ccc(C(=O)CN2C(=O)NC3(CCC(F)(F)CC3)C2=O)cc1 [Example 6-53] | < 500
O=C(CN1C(=O)NC2(CCC(F)(F)CC2)C1=O)c1ccc(Cc2ccccn2)cc1 [Example 6-119] | < 500
Cc1ccccc1-c1ccc(C(=O)CN2C(=O)NC3(CCC(F)(F)CC3)C2=O)nc1 [Example 10-2] | < 100
COc1cc(C(=O)CN2C(=O)NC3(CCC(F)(F)CC3)C2=O)ccc1-c1cccnc1 [Example 5-3] | < 100
Cc1cc(C(=O)CN2C(=O)NC3(CCC(F)(F)CC3)C2=O)c(C)n1-c1ccccc1 [Example 3-4] | < 100
NCc1ccncc1-c1ccc(C(=O)CN2C(=O)NC3(CCC(F)(F)CC3)C2=O)cc1 [Example 6-58, 3-(2-(4-(4-(aminomethyl)pyridin-3-yl)phenyl)-2-oxoethyl)-8,8-difluoro-1,3-diazaspiro[4.5]decane-2,4-dione] | < 100
Cc1ccccc1-n1ncc(C(=O)CN2C(=O)NC3(CCC(F)(F)CC3)C2=O)c1C [Example 4-12] | < 500
COc1nccnc1-c1ccc(C(=O)CN2C(=O)NC3(CCC(F)(F)CC3)C2=O)cc1 [Example 6-97] | < 100
O=C(CN1C(=O)NC2(CCC(F)(F)CC2)C1=O)c1ccc(-c2ccc3ccncc3c2)cc1 [Example 6-96] | < 500
O=C(CN1C(=O)NC2(CCC(F)(F)CC2)C1=O)c1ccc(-c2nccc3occc23)cc1 [Example 6-31] | < 100
Cc1cc(C(=O)CN2C(=O)NC3(CCC(F)(F)CC3)C2=O)c(C)n1-c1cccnc1 [Example 3-9] | < 100
O=C(CN1C(=O)NC2(CCC(F)(F)CC2)C1=O)c1ccc(-c2cnn3ccccc23)cc1 [Example 6-67] | < 100
N#Cc1cccnc1-c1ccc(C(=O)CN2C(=O)NC3(CCC(F)(F)CC3)C2=O)cc1 [Example 6-87] | < 100

Now from value to compound:

IC50 [nM] | SMILES
< 100 | Cc1nc(C(=O)CN2C(=O)NC3(CCC(F)(F)CC3)C2=O)sc1-c1cccc2ccncc12 [Example 18-10]
< 10 | O=C(CN1C(=O)NC2(CCC(F)(F)CC2)C1=O)c1ccc(-c2ccccc2CO)cc1 [Example 13-34]
< 100 | Cc1ccc2[nH]c(=O)n(-c3ccc(C(=O)CN4C(=O)NC5(CCC(F)(F)CC5)C4=O)cc3)c2n1 [Example 23-2, 8,8-difluoro-3-(2-(4-(5-methyl-2-oxo-1H-imidazo[4,5-b]pyridin-3(2H)-yl)phenyl)-2-oxoethyl)-1,3-diazaspiro[4.5]decane-2,4-dione]
< 100 | Cc1nc(C(=O)CN2C(=O)NC3(CCC(F)(F)CC3)C2=O)n(C)c1-c1cc(F)cc(F)c1 [Example 17-11]
< 100 | Cc1c(C(=O)CN2C(=O)NC3(CCC(F)(F)CC3)C2=O)cn(C)c1-c1cccc2ccncc12 [Example 16-27]
< 500 | CCc1nc2cccnc2n1-c1ccc(C(=O)CN2C(=O)NC3(CCC(F)(F)CC3)C2=O)cc1 [Example 24-2]
< 100 | Cc1cc(C(=O)CN2C(=O)NC3(CCC(F)(F)CC3)C2=O)sc1-c1cncc(C#N)c1 [Example 14-13]
< 100 | Cc1cc(C(=O)CN2C(=O)NC3(CCC(F)(F)CC3)C2=O)sc1-c1ccccc1CO [Example 14-4]
< 10 | COc1nc2cccnc2n1-c1ccc(C(=O)CN2C(=O)NC3(CCC(F)(F)CC3)C2=O)cc1 [Example 26-1, 8,8-difluoro-3-(2-(4-(2-methoxy-3H-imidazo[4,5-b]pyridin-3-yl)phenyl)-2-oxoethyl)-1,3-diazaspiro[4.5]decane-2,4-dione]
< 500 | Cc1nc(C(=O)CN2C(=O)NC3(CCC(F)(F)CC3)C2=O)sc1-c1cccc2c1CNC2=O [Example 18-12]
< 10 | Cc1cc(C(=O)CN2C(=O)NC3(CCC(F)(F)CC3)C2=O)n(C)c1-c1cccc(C#N)c1 [Example 16-4]
< 100 | Cc1nc(C(=O)CN2C(=O)NC3(CCC(F)(F)CC3)C2=O)sc1-c1cncc(F)c1 [Example 18-9]
< 100 | O=C(CN1C(=O)NC2(CCCCC2)C1=O)c1ccc(-c2ccccc2)cc1F [Example 13-20]
< 100 | Cc1sc(C(=O)CN2C(=O)NC3(CCC(F)(F)CC3)C2=O)c(C)c1-c1cccc(C#N)c1 [Example 15-3]
< 100 | Cc1cc(C(=O)CN2C(=O)NC3(CCC(F)(F)CC3)C2=O)sc1-c1ccccc1C#N [Example 14-8]
< 100 | N#Cc1cccc(Oc2ccc(C(=O)CN3C(=O)NC4(CCC(F)(F)CC4)C3=O)cn2)c1 [Example 20-7]

IC50 [nM] | SMILES
< 100 | O=C(CN1C(=O)NC2(CCC(F)(F)CC2)C1=O)c1ccc(-n2ccc3ccccc32)cc1 [Example 19-18]
< 500 | Cc1ccccc1-c1ccc(C(=O)CN2C(=O)NC3(CCC(F)(F)CC3)C2=O)nn1 [Example 12-7]
< 100 | O=C(CN1C(=O)NC2(CCCCC2)C1=O)c1ccc(-c2ccccc2CO)cc1 [Example 13-1]
< 100 | Cc1sc(C(=O)CN2C(=O)NC3(CCC(F)(F)CC3)C2=O)c(C)c1-c1cccnc1 [Example 15-2]
< 500 | CN(c1cccc(C(F)(F)F)c1)c1ccc(C(=O)CN2C(=O)NC3(CCC(F)(F)CC3)C2=O)cn1 [Example 19-15]
< 100 | N#Cc1cccnc1Oc1ccc(C(=O)CN2C(=O)NC3(CCC(F)(F)CC3)C2=O)cc1 [Example 21-1, 2-(4-(2-(8,8-difluoro-2,4-dioxo-1,3-diazaspiro[4.5]decan-3-yl)acetyl)phenoxy)nicotinonitrile]
< 100 | Cc1ccncc1-c1sc(C(=O)CN2C(=O)NC3(CCCCC3)C2=O)cc1C [Example 14-3]
< 100 | Cc1ccncc1-c1c(C)cc(C(=O)CN2C(=O)NC3(CCC(F)(F)CC3)C2=O)n1C [Example 16-10]
< 100 | O=C(CN1C(=O)NC2(CCC(F)(F)CC2)C1=O)c1ccc(Oc2cccnc2)c(F)c1 [Example 21-17]
< 100 | Cc1cc(C(=O)CN2C(=O)NC3(CCC(F)(F)CC3)C2=O)ccc1-c1cncc(F)c1 [Example 13-8]
< 500 | Cn1c(C(=O)CN2C(=O)NC3(CCC(F)(F)CC3)C2=O)ccc1-c1ccccc1C#N [Example 16-29]
< 100 | O=C(CN1C(=O)NC2(CCC(F)(F)CC2)C1=O)c1ccc(-c2ccccc2CO)c(Cl)c1 [Example 13-27]
< 100 | Cc1cc(C(=O)CN2C(=O)NC3(CCC(F)(F)CC3)C2=O)n(C)c1-c1ccccc1C#N [Example 16-7]
< 100 | O=C(CN1C(=O)NC2(CCC(F)(F)CC2)C1=O)c1ccc(N2CCOc3ccccc32)nc1 [Example 19-7]
< 100 | O=C(CN1C(=O)NC2(CCC(F)(F)CC2)C1=O)c1ccc(-n2ccc3cccnc32)cc1 [Example 19-17]
